System: B16-F10 cells
Assay: Proteomic analysis of B16-F10 cells (DIA mass spectrometry)
Assay type: cell-based, mouse
Experimental: B16-F10 cells were treated with various concentrations of carboxylic acids following the same culture protocol used for melanin inhibition assays. After treatment, the cells were collected and submitted to Shanghai Zhongke Xinming Biotechnology Co., Ltd. (Shanghai, China) for proteomics analysis. The collected cells were lysed with an appropriate volume of SDT lysis buffer (4% SDS, 100 mM Tris-HCl, pH 7.6) to extract proteins. DTT was added to reduce disulfide bonds, followed by incubation at room temperature for 1 h. Subsequently, iodoacetamide was added, and the mixture was reacted in the dark at room temperature for 30 min. The proteins were then digested with trypsin overnight. The resulting peptide fragments were desalted using a C18 cartridge. After freeze-drying, the peptides were resuspended in 40 μL of 0.1% formic acid solution, and the peptide concentration was determined by measuring the absorbance at 280 nm. An appropriate amount of internal reference for targeted proteomics (iRT) standard peptides was added to each sample for data-independent acquisition (DIA) mass spectrometry analysis. Chromatographic separation was performed using a nanoflow Evosep One system. The separated samples were analyzed by DIA mass spectrometry using a timsTOF Pro mass spectrometer (Bruker Daltonics, Bremen, Germany). Detection was conducted in positive-ion mode, with MS and MS/MS scanning ranges set from 100 to 1700 m/z. MS2 data acquisition was performed in DIA mode, with four TIMS scan windows, each accumulating for 100 ms. In PASEF mode, the collision energy varied linearly with ion mobility (1/K0), ranging from 20 to 59 eV for ions with 1/K0 values between 0.85 and 1.30 Vs/cm^2. The DIA data were processed using Spectronaut 19 software with the following parameter settings: retention time prediction type set to dynamic iRT, interference correction on MS2 level enabled, cross-run normalization enabled, maximum missed cleavage sites set to 2, fixed modification set to Carbamidomethyl (C), and variable modifications set to Oxidation (M) and Acetyl (Protein N-term). All results were filtered with a Q-value cutoff of 0.01, corresponding to a false discovery rate (FDR) of less than 1%. The target protein set was annotated using Blast2GO (version BLASTP 2.8.0+). The process included four steps: sequence alignment (Blast), GO mapping, GO annotation, and additional annotation augmentation using InterProScan. Using the KOBAS 3.0 software, KEGG pathway annotation was performed on the target protein set. Fisher’s exact test was employed to compare the distribution of GO categories in the target protein set and the overall protein set, thereby conducting enrichment analysis of the GO annotations in the target protein set. The proteomics dataset generated in this study has been made publicly available through the PRIDE ProteomeXchange Consortium with the dataset identifier PXD061919.

With `O=C(O)C(O)Cc1ccccc1` (stereo not shown) [3-phenyllactic acid] the “ATP8 protein fold change” value (6 mM vs control, Table S1) was 0.4618, the “Aanat protein fold change” value (6 mM vs control, Table S1) was 2.208 and the “Acta1 protein fold change” value (6 mM vs control, Table S1) was 2.921. The “Adgrg1 protein fold change” value (6 mM vs control, Table S1) was 0.4728, the “Agtrap protein fold change” value (6 mM vs control, Table S1) was 0.4687 and the “Antxr2 protein fold change” value (6 mM vs control, Table S1) was 0.4747. For the same compound, the “Aplp2 protein fold change” value (6 mM vs control, Table S1) was 0.2246, the “Apob protein fold change” value (6 mM vs control, Table S1) was 0.4962 and the “Apoh protein fold change” value (6 mM vs control, Table S1) was 0.4857. For the same compound, the “App protein fold change” value (6 mM vs control, Table S1) was 0.3729, the “Arl6ip1 protein fold change” value (6 mM vs control, Table S1) was 0.4901 and the “Bace2 protein fold change” value (6 mM vs control, Table S1) was 0.4069. For the same compound, the “Bcl9 protein fold change” value (6 mM vs control, Table S1) was 2.336, the “Bltp1 protein fold change” value (6 mM vs control, Table S1) was 2.099 and the “Bst2 protein fold change” value (6 mM vs control, Table S1) was 0.3949. For the same compound, the “CUB domain-containing protein (Q3TD85) fold change” value (6 mM vs control, Table S1) was 0.4924, the “Cav2 protein fold change” value (6 mM vs control, Table S1) was 0.4909 and the “Cdc42se1 protein fold change” value (6 mM vs control, Table S1) was 0.3683. The “Cisd2 protein fold change” value (6 mM vs control, Table S1) was 0.4369, the “Cks2 protein fold change” value (6 mM vs control, Table S1) was 0.4644 and the “Ctns protein fold change” value (6 mM vs control, Table S1) was 0.3087. For the same compound, the “Cxne protein fold change” value (6 mM vs control, Table S1) was 0.3753, the “Cyp51a1 protein fold change” value (6 mM vs control, Table S1) was 0.3449 and the “Ddit3 protein fold change” value (6 mM vs control, Table S1) was 2.105. The “Dgcr2 protein fold change” value (6 mM vs control, Table S1) was 0.4147, the “Dnajc19 protein fold change” value (6 mM vs control, Table S1) was 0.3587 and the “E2f5 protein fold change” value (6 mM vs control, Table S1) was 2.473. For the same compound, the “Eng protein fold change” value (6 mM vs control, Table S1) was 0.3635, the “Entpd7 protein fold change” value (6 mM vs control, Table S1) was 0.3998 and the “Epb41l4b protein fold change” value (6 mM vs control, Table S1) was 2.181. For the same compound, the “Fam174b protein fold change” value (6 mM vs control, Table S1) was 0.4339, the “Fau protein fold change” value (6 mM vs control, Table S1) was 4.21 and the “Fosl2 protein fold change” value (6 mM vs control, Table S1) was 5.488. For the same compound, the “Fv4 protein fold change” value (6 mM vs control, Table S1) was 0.4177, the “Ginm1 protein fold change” value (6 mM vs control, Table S1) was 0.3741 and the “Glmp protein fold change” value (6 mM vs control, Table S1) was 0.4495. The “H1-0 protein fold change” value (6 mM vs control, Table S1) was 2.057, the “H3c14 protein fold change” value (6 mM vs control, Table S1) was 3.134 and the “Hbbt1 protein fold change” value (6 mM vs control, Table S1) was 0.388. The “Hmgcs1 protein fold change” value (6 mM vs control, Table S1) was 0.3916, the “Hspa13 protein fold change” value (6 mM vs control, Table S1) was 0.4084 and the “Ifi205 protein fold change” value (6 mM vs control, Table S1) was 2.571. The “Ifitm2 protein fold change” value (6 mM vs control, Table S1) was 0.4697, the “Il10rb protein fold change” value (6 mM vs control, Table S1) was 0.3763 and the “Itih3 protein fold change” value (6 mM vs control, Table S1) was 0.3529. For the same compound, the “Itm2b protein fold change” value (6 mM vs control, Table S1) was 0.2428, the “Itm2c protein fold change” value (6 mM vs control, Table S1) was 0.3416 and the “Kbtbd2 protein fold change” value (6 mM vs control, Table S1) was 0.4177. For the same compound, the “Kcnj13 protein fold change” value (6 mM vs control, Table S1) was 0.3629, the “Laptm4a protein fold change” value (6 mM vs control, Table S1) was 0.2076 and the “Laptm4b protein fold change” value (6 mM vs control, Table S1) was 0.3669. The “Ldha protein fold change” value (6 mM vs control, Table S1) was 2.104, the “Ldlr protein fold change” value (6 mM vs control, Table S1) was 0.4018 and the “Mast4 protein fold change” value (6 mM vs control, Table S1) was 2.12. The “Met protein fold change” value (6 mM vs control, Table S1) was 0.4986, the “Mfap3 protein fold change” value (6 mM vs control, Table S1) was 0.4088 and the “Mlana protein fold change” value (6 mM vs control, Table S1) was 0.2524. For the same compound, the “Mtfr2 protein fold change” value (6 mM vs control, Table S1) was 0.4374, the “Myl6 protein fold change” value (6 mM vs control, Table S1) was 0.4951 and the “Ndfip1 protein fold change” value (6 mM vs control, Table S1) was 0.3294. The “Nfatc2 protein fold change” value (6 mM vs control, Table S1) was 0.2366, the “Nrp1 protein fold change” value (6 mM vs control, Table S1) was 0.4865 and the “Nrp2 protein fold change” value (6 mM vs control, Table S1) was 0.3408. For the same compound, the “Pacsin2 protein fold change” value (6 mM vs control, Table S1) was 0.3403, the “Phyhd1 protein fold change” value (6 mM vs control, Table S1) was 2.286 and the “Pmel protein fold change” value (6 mM vs control, Table S1) was 0.4916. For the same compound, the “Psap protein fold change” value (6 mM vs control, Table S1) was 0.4703, the “Ptprs protein fold change” value (6 mM vs control, Table S1) was 0.4896 and the “Rad51ap1 protein fold change” value (6 mM vs control, Table S1) was 0.4291. The “Rnf220 protein fold change” value (6 mM vs control, Table S1) was 0.4969, the “Sdc1 protein fold change” value (6 mM vs control, Table S1) was 0.244 and the “Sdcbp protein fold change” value (6 mM vs control, Table S1) was 0.4883. For the same compound, the “Serac1 protein fold change” value (6 mM vs control, Table S1) was 2.052, the “Sfpq protein fold change” value (6 mM vs control, Table S1) was 2.482 and the “Sgce protein fold change” value (6 mM vs control, Table S1) was 0.4392. For the same compound, the “Slc2a6 protein fold change” value (6 mM vs control, Table S1) was 0.4306, the “Slc4a2 protein fold change” value (6 mM vs control, Table S1) was 0.48 and the “Slc7a1 protein fold change” value (6 mM vs control, Table S1) was 0.4712. The “Slc24a5 protein fold change” value (6 mM vs control, Table S1) was 0.4286, the “Slc35b2 protein fold change” value (6 mM vs control, Table S1) was 0.3476 and the “Slc38a2 protein fold change” value (6 mM vs control, Table S1) was 0.3733. For the same compound, the “Slc45a2 protein fold change” value (6 mM vs control, Table S1) was 0.451, the “Sparcl1 protein fold change” value (6 mM vs control, Table S1) was 0.4926 and the “Syt4 protein fold change” value (6 mM vs control, Table S1) was 0.3106. For the same compound, the “Tagln2 protein fold change” value (6 mM vs control, Table S1) was 0.2815, the “Tgoln1 protein fold change” value (6 mM vs control, Table S1) was 0.479 and the “Tial1 protein fold change” value (6 mM vs control, Table S1) was 2.492. The “Tmed1 protein fold change” value (6 mM vs control, Table S1) was 0.4801, the “Tmem14c protein fold change” value (6 mM vs control, Table S1) was 4.332 and the “Tmem59 protein fold change” value (6 mM vs control, Table S1) was 0.233. For the same compound, the “Tmem176a protein fold change” value (6 mM vs control, Table S1) was 0.2277, the “Tmem176b protein fold change” value (6 mM vs control, Table S1) was 0.171 and the “Trib3 protein fold change” value (6 mM vs control, Table S1) was 2.531. For the same compound, the “Try10 protein fold change” value (6 mM vs control, Table S1) was 0.2906, the “Tspan3 protein fold change” value (6 mM vs control, Table S1) was 0.3162 and the “Tspan10 protein fold change” value (6 mM vs control, Table S1) was 0.3282. For the same compound, the “Tubb4a protein fold change” value (6 mM vs control, Table S1) was 3.655, the “Tyrp1 protein fold change” value (6 mM vs control, Table S1) was 0.3578 and the “U2af1l4 protein fold change” value (6 mM vs control, Table S1) was 2.0208. The “Ube2j1 protein fold change” value (6 mM vs control, Table S1) was 0.3514, the “Ubl3 protein fold change” value (6 mM vs control, Table S1) was 0.2819 and the “Zbtb3 protein fold change” value (6 mM vs control, Table S1) was 2.269. The “env protein fold change” value (6 mM vs control, Table S1) was 0.4886, the “il6st protein fold change” value (6 mM vs control, Table S1) was 0.4117 and the “p53 (Fragment) (A6YM30) protein fold change” value (6 mM vs control, Table S1) was 3.222. For the same compound, the “regulation of MMP9 or PPARG” value (mouse B16-F10 cells, proteomic analysis) was “did not significantly downregulate”.

From paper PMC11990924, “Inhibition of Tyrosinase and Melanogenesis by Carboxylic Acids: Mechanistic Insights and Safety Evaluation” (Molecules, 2025)
